Entries after “also recorded” stand apart in the source; their conditions may differ.

For data set [1], the system named is L. (L.) amazonensis intracellular amastigotes. The data set is described as follows: Intracellular amastigote assay, L. (L.) amazonensis in BALB/c peritoneal macrophages. The data set is classed as cell-based. The settings on record: Leishmania amazonensis, in Mus musculus, 72 h; for IC50: Macrophage, intracellular amastigotes in macrophages. The procedure:
(§1) L. (L.) amazonensis and L. (V.) braziliensis promastigotes with 7–8 days and 5–6 days of growth, respectively, were harvested from cultures and added to a fresh Schneider's medium supplemented with 5% FCS, pH 6.0, and incubated at 32°C for 7 days for L. (L.) amazonensis and 4–5 days for L. (V.) braziliensis until a complete transformation to amastigote-like.
(§2) Peritoneal macrophages from BALB/c mice were harvested by washing with ice-cold RPMI 1640 medium, 4 days after induction with a 3% thioglycollate solution. Macrophages were diluted in RPMI 1640 medium (Sigma, Poole, United Kingdom) plus 10% FCS and plated in 24 well plates with a circular cover glass at a plating density of 2×10^5 macrophages/well. Macrophages were allowed to adhere for 2 h at 37°C and 5% CO2, when the medium was replaced by a fresh one and incubated overnight.
Macrophages were infected with amastigote-like parasites from L. (L.) amazonensis or L. (V.) braziliensis. The parasites were counted in a Neubauer's chamber and adjusted to a macrophage-amastigote ratio of 1∶8. Infected cultures were maintained at 37°C and 5% CO2. After 4 h, extracellular parasites were removed by washing, and a fresh medium containing either TPM compounds, no drug, or the reference drug. AmB (Fungizone®-Bristol- Meyers Squibb Pharmaceutics Ltda, Bedford, USA) was the chosen reference drug and was used at 0.2 µg/mL. After 72 h, the cover glass was removed from the well, washed in RPMI 1640 medium, set in microscope blades, fixed with methanol, and stained with Giemsa for evaluation. Under the immersion microscope, infection indexes (number of amastigotes/100× percentage of infected macrophages) were determined by counting the numbers of intracellular amastigotes in 100 macrophages. […] Each point was tested in triplicate and three independent experiments were then performed. Results are presented as mean and 95% CI [25].

Data set [2] has as its system L. (V.) braziliensis intracellular amastigotes. The data set is described as follows: Intracellular amastigote assay, L. (V.) braziliensis in BALB/c peritoneal macrophages. The data set is classed as cell-based, Leishmania (Viannia) braziliensis. Particulars: Leishmania braziliensis, in Mus musculus, 72 h. The procedure: as §1, §2
Macrophages were infected with amastigote-like parasites from L. (L.) amazonensis or L. (V.) braziliensis. The parasites were counted in a Neubauer's chamber and adjusted to a macrophage-amastigote ratio of 1∶8. Infected cultures were maintained at 37°C and 5% CO2. […] Under the immersion microscope, infection indexes (number of amastigotes/100× percentage of infected macrophages) were determined by counting the numbers of intracellular amastigotes in 100 macrophages. […]

Data set [3] in a line: Cytotoxicity MTT assay on macrophages. Format: cell-based. Particulars: mouse, BALB/c peritoneal macrophages, 68 h + 4 h. The procedure: To evaluate the toxicity of selected compounds, an in vitro cytotoxicity assay on macrophages from BABL/c mice was performed through 3-(4,5-dimethyithiazol-2-yl)-2,5- diphenyltetrazolium bromide (MTT) (Sigma, Poole, United Kingdom) assay. Briefly, peritoneal macrophages from BALB/c mice were harvested, as described previously and plated in 96-well-flat-bottom microplates at a plating density of 1×10^5 macrophages/well. Macrophages were allowed to adhere for 2 h at 37°C and 5% CO2, at which time the medium was replaced by a fresh one and incubated over night. Then, the cells were exposed to ten points of serial dilution of TPM 1, 2, 6, 9 or GV ([…]), which were used to obtain a curve to determine the IC50. After 68 h of incubation, 10 µL of MTT (10 mg/mL) was added to each well and the plates were further incubated for 4 h. The enzymatic reaction was then stopped by addition of 100 µL of 50% isopropanol–10% sodium dodecyl sulfate solution. The optical density at 570 nm was quantified using an ELISA plate reader (BioSource, Inc., EUA). Three independent experiments, in triplicate, were performed to determine the cytotoxicity and data were expressed as mean and 95% CI. An experiment was also done to control the possibility of dye color interference on MTT assay. […] The optical density at 570 nm was measured using an ELISA plate reader (BioSource, Inc., EUA).
A general note: Formazan colour is commonly taken as a measure of viable cells.

Data set [4] concerns L (L.) amazonensis-infected BALB/c mice. Kind of data set: In vivo topical gel treatment, parasite quantification at the site of infection by limiting dilution. On the set-up: species or system Leishmania (Leishmania) amazonensis in BALB/c mice. The settings on record: twice a day, 20 days; for decrease of parasite burdens versus control / parasite burdens at site of infection (number of parasites): 1% gel; for parasite burdens at site of infection (number of parasites): 3 days after treatment, control group 1×10^7 (Figure 3A); for number of parasites within the lesion: control group 2.2×10^7 (Figure 3B). As to the method: The formulation of the GV and TPM 6 gel was prepared by mixing equal amounts of a 2% hydroxyethylcellulose gel (HEC; Natrosol 250 HR, Aqualon) and a 2% GV or TPM 6 hydroethanolic solution (mixture ethanol/water 1/5), until a homogeneous preparation had been attained. Therefore, GV and TPM 6 concentration in these formulations was 1%. The gel lower concentrations for dose-response experiments was obtained by diluting the 1% GV gel with 1% HEC gel.
BALB/c mice (females, 5–6 weeks old) were inoculated with 1×10^7 stationary growth phase promastigotes of L (L.) amazonensis through subcutaneous injections at the base of the tail, after trichotomy.
To evaluate the in vivo efficacy of GV and TPM 6, after development of ulcerated lesions (average diameter of 7 to 9 mm), BALB/c mice were divided into three groups. For treatment with TPM 6 and GV, lesions were covered with 50 µl of a gel formulation containing either 1% GV or 1% TPM 6, twice a day, for 20 days, using an Eppendorf pippetor. Control group: animals from control group were treated with the gel formulation without GV or TPM 6 (placebo). The treatment efficacy was evaluated through of the parasite quantification at the site of infection (see below).
Afterwards, a dose-effect study of GV was performed. BALB/c mice, presenting ulcerated lesions (average diameter of 7 to 9 mm), were divided into four groups, according to lesion size, to assure similar average lesion size among treated groups. The GV gel formulation was applied topically at 0.1, 0.5 or 1.0% twice a day, for 20 days. Control group: animals from control group were treated with the gel formulation without GV (placebo). The treatment efficacy was evaluated through of the parasite quantification at the site of infection (see below).
Three days after the interruption of treatment, the number of viable parasites at the site of infection was quantified by a limiting-dilution assay. Skin fragments from ulcerated lesions, were homogenized with a tissue grinder in Schneider's modified medium supplemented with 10% bovine fetal serum and 100 U/mL penicilin and 100 µg/mL streptomycin. Next, the tissue was centrifuged at 50 g for two minutes for sedimentation (Hitachi, Himac). The supernatant was separated and centrifuged again at 1700 g for 15 minutes (Express, Jouan). The pellet formed was resuspended in 1 mL of Schneider's modified medium supplemented with 10% FCS and 1% of a 100 U/mL penicillin and 100 µg/mL streptomycin solution. The homogenate was submitted to serial dilutions in duplicates in sterile 96 well culture plates and incubated at 23°C. Each well was examined for the presence of parasites, and the number of parasites was quantified by the highest dilution at which parasites could grow over a 7-day period. The lowest dilution that parasites were detected was 10^−1, which was considered the limit of quantification.

The subject of data set [5] is L. (L.) amazonensis promastigotes. The data set is described as follows: Promastigotes assay, L. (L.) amazonensis. The data set is classed as cell-based. The settings on record: Leishmania amazonensis, 48 h incubation, mean of triplicates. The procedure: (§3) Promastigotes of L. (L.) amazonensis (IFLA/BR/1967/PH-8), L. (V.) braziliensis (MHOM/BR/75/M2903), and L. (L.) major (MHOM/IL/80/Friedlin) were maintained at 23°C in Schneider's Drosophila medium (Merck, Germany) supplemented with 20% heat-inactivated fetal calf serum (FCS) (Gibco, Eggenstein, Germany), pH 7.2. The same strain of L. (L.) amazonensis was used for both in vitro and in vivo experiments.
(§4) Promastigotes of L. (L.) amazonensis, L. (V.) braziliensis or L. (L.) major with 3 or 4 days of growth were plated in 24 well plates at a plating density of 1×10^6 parasites/mL in Schneider's medium supplemented with 20% FCS, pH 7.2. Drugs were diluted at the same medium and added to a parasite suspension in different concentrations, in triplicate. After 48 h of incubation, the parasites were counted and compared to the controls containing parasites in the absence of drugs. The drug concentration corresponding to 50% of the parasite growth inhibition was expressed as IC50. Three independent experiments were performed to confirm the results. Data are presented as mean and 95% CI.

In data set [6] the test system is L. (L.) major promastigotes. The data set is described as follows: Promastigotes assay, L. (L.) major. Particulars: Leishmania major, 48 h incubation, mean of triplicates. Format: cell-based. The procedure:
as §3, §4

In data set [7] the test system is L. (V.) braziliensis promastigotes. The data set is described as follows: Promastigotes assay, L. (V.) braziliensis. Format: cell-based, Leishmania (Viannia) braziliensis. The settings on record: Leishmania braziliensis, 48 h incubation, mean of triplicates. The procedure: as §3, §4
Data set [8] concerns BALB/c mice infected with L. (L.) amazonensis. The settings on record: intramuscular administration, doses equivalent to human chemotherapy; cited from earlier work.
The test system of data set [9] is hamsters infected L. (V.) braziliensis. Also noted: method as in PMID 15652330. Particulars: intramuscular administration, doses equivalent to human chemotherapy; cited from earlier work.
Setting [10] is: Peritoneal macrophage, control drug at 0.2 µg/ml, intracellular amastigotes, read-out: mean value of parasite growth inhibition.

Turning to `C[C@@H]1[C@H](O)[C@@H](C)/C=C/C=C/C=C/C=C/C=C/C=C/C=C/[C@H](O[C@@H]2O[C@H](C)[C@@H](O)[C@H](N)[C@@H]2O)C[C@@H]2O[C@](O)(C[C@@H](O)C[C@@H](O)[C@H](O)CC[C@@H](O)C[C@@H](O)CC(=O)O[C@H]1C)C[C@H](O)[C@H]2C(=O)O` [AmB, amphotericin B], the inhibition (in general, the relative decrease from the control value, in per cent) at 0.2 µg/mL in [1] (setting [10]) was 99.5%; in [2] (setting [10]), 98%.
On to `CN(C)c1ccc(C(=C2C=CC(=[N+](C)C)C=C2)c2ccc(N(C)C)cc2)cc1` [GV, gentian violet], for which, in data set [3], the IC50 (commonly the concentration needed to halve the response being measured) at 68 h was found to be 4030 nM. The “decrease of parasite burdens versus control” value in [4] was “complete elimination of parasites”. Moreover, the “parasite burdens at site of infection (number of parasites)” value in [4] is on record as “no parasites were found”. The figures for the “number of parasites within the lesion” value in [4] (GV gel 0.1%), in data set [4] (GV gel 0.5%) and in data set [4] (GV gel 1%) were 2.2×10^6, 2.62×10^5 and “parasites were not detected; also recorded: complete elimination of parasite burden”, respectively. Also, the IC50 came to 0.025 µM in data set [5], 0.034 µM in [6] and 170 nM in [1].
With `CCN(CC)c1ccc(C(=C2C=C(Cl)C=CC2=[Cl+])c2ccc(N(CC)CC)cc2)cc1` [TPM 3], in data set [5], the IC50 is greater than 1 µM.
For `CCN(CC)c1ccc(C(=C2C=CC(C)C=C2)c2ccc(N(CC)CC)cc2)cc1` (stereo not drawn) [TPM 6], the half-maximal inhibitory concentration (IC50) at 68 h in [3] amounted to 4160 nM. For the same compound, the “decrease of parasite burdens versus control” value in [4] is recorded as “three orders of magnitude”. Besides, the “parasite burdens at site of infection (number of parasites)” value in [4] was 1×10^4. Besides, the IC50 in [7] is 0.063 µM; in data set [5], 0.031 µM; in data set [6], 0.045 µM; in [1] it was 100 nM; in data set [2] (Macrophage, intracellular amastigotes in macrophages) it was 100 nM.
Compound `CN(C)c1ccc(C(=C2C=CC(c3cnc(-c4ccc(-c5ncc(-c6ccccc6)o5)cc4)o3)C=C2)c2ccc(N(C)C)cc2)cc1` (stereo not drawn) [TPM 7] yielded a 50% inhibitory concentration (IC50) in [5] greater than 5 µM.
On the same count and under the same terms, as for `CCN(CC)c1ccc(C(=C2C=C(C(c3ccc(Cl)cc3)C(Cl)(Cl)Cl)C=CC2=[Cl+])c2ccc(N(CC)CC)cc2)cc1` (stereo not drawn) [TPM 10], the figure is greater than 4 µM.
With meglumine antimoniate [Glucantime], the “reduction in lesions size” value in data set [8] and in data set [9] was “did not lead to significant reductions in lesions size” each time.

Source of the values: paper PMC3544846, “Triphenylmethane Derivatives Have High In Vitro and In Vivo Activity against the Main Causative Agents of Cutaneous Leishmaniasis” (PLoS ONE, 2013).
